From the CheMixHub ionic liquid set

Assay: xn = mol fraction of the nth substance listed

CCCC[N+](CCCC)(CCCC)CCCC.[Br-] + CCCCCCCCCCCCOS(=O)(=O)[O-].[Na+] + O
viscosity [mPa·s], 100 kPa
Details | x2 = 1.81e-06, x1 = 0.0001802 | x2 = 3.61e-06, x1 = 0.0001802 | x2 = 5.42e-06, x1 = 0.0001802 | x2 = 7.23e-06, x1 = 0.0001802 | x2 = 9.04e-06, x1 = 0.0001802 | x2 = 1.084e-05, x1 = 0.0001802 | x2 = 1.265e-05, x1 = 0.0001802 | x2 = 1.446e-05, x1 = 0.0001802 | x2 = 1.627e-05, x1 = 0.0001802 | x2 = 1.807e-05, x1 = 0.0001802
293.15 K | 1.023 | 1.024 | 1.026 | 1.027 | 1.028 | 1.029 | 1.029 | 1.03 | 1.03 | 1.03
298.15 K | 0.916 | 0.919 | 0.92 | 0.921 | 0.922 | 0.922 | 0.923 | 0.924 | 0.924 | 0.925
303.15 K | 0.8 | 0.801 | 0.802 | 0.802 | 0.803 | 0.803 | 0.803 | 0.803 | 0.804 | 0.804
308.15 K | 0.72 | 0.721 | 0.722 | 0.723 | 0.724 | 0.724 | 0.724 | 0.725 | 0.725 | 0.725
313.15 K | 0.654 | 0.655 | 0.656 | 0.657 | 0.657 | 0.657 | 0.657 | 0.657 | 0.657 | 0.658
318.15 K | 0.6 | 0.601 | 0.601 | 0.601 | 0.602 | 0.602 | 0.602 | 0.602 | 0.602 | 0.603

CCCC[N+](CCCC)(CCCC)CCCC.[Br-] + CCCCCCCCCCCC[N+](C)(C)C.[Br-] + O
viscosity [mPa·s], 100 kPa
Details | x2 = 5.422e-05, x1 = 0.0001802 | x2 = 0.0001084, x1 = 0.0001801 | x2 = 0.0001626, x1 = 0.0001801 | x2 = 0.0002169, x1 = 0.0001801 | x2 = 0.0002711, x1 = 0.0001801 | x2 = 0.0003252, x1 = 0.0001801 | x2 = 0.0003794, x1 = 0.0001801 | x2 = 0.0004336, x1 = 0.0001801 | x2 = 0.0004878, x1 = 0.0001801 | x2 = 0.000542, x1 = 0.0001801
293.15 K | 1.056 | 1.057 | 1.059 | 1.061 | 1.061 | 1.062 | 1.062 | 1.063 | 1.063 | 1.063
298.15 K | 0.939 | 0.942 | 0.943 | 0.945 | 0.946 | 0.946 | 0.948 | 0.949 | 0.95 | 0.951
303.15 K | 0.824 | 0.825 | 0.826 | 0.826 | 0.827 | 0.827 | 0.828 | 0.828 | 0.828 | 0.828
308.15 K | 0.742 | 0.744 | 0.745 | 0.746 | 0.746 | 0.746 | 0.747 | 0.747 | 0.747 | 0.747
313.15 K | 0.675 | 0.676 | 0.677 | 0.677 | 0.678 | 0.678 | 0.678 | 0.678 | 0.678 | 0.679
318.15 K | 0.62 | 0.621 | 0.621 | 0.621 | 0.622 | 0.622 | 0.622 | 0.622 | 0.622 | 0.623

CCCCCCCC(=O)[O-].c1c[nH+]c[nH]1 + CCCCCCCCO
101.3 kPa
Details | viscosity [mPa·s]
293.15 K, x2 = 0.4 | 39.42
293.15 K, x2 = 0.6005 | 24
298.15 K, x2 = 0.4 | 33.3
298.15 K, x2 = 0.5007 | 25.9
298.15 K, x2 = 0.6005 | 20.3
298.15 K, x2 = 0.8997 | 9.1
303.15 K, x2 = 0.6005 | 17.2
308.15 K, x2 = 0.1011 | 40.69
308.15 K, x2 = 0.6999 | 11.72
313.15 K, x2 = 0.6005 | 12.3
318.15 K, x2 = 0.1011 | 27.68
318.15 K, x2 = 0.799 | 6.7
318.15 K, x2 = 0.8997 | 5.38
323.15 K, x2 = 0.1011 | 22.9
323.15 K, x2 = 0.2991 | 17.1
323.15 K, x2 = 0.8997 | 4.82

CC1=CCC(C(C)C)=CC1 + CCCCCCCC[N+](CCCCCCCC)(CCCCCCCC)CCCCCCCC.[Br-] + [Cl-].[Cl-].[Co+2]
Details | viscosity [mPa·s]
296.1 K, 101.3 kPa, x2 = 0.4, x3 = 0.2 | 120000

CCCCCCCCn1cc[n+](C)c1C.F[P-](F)(F)(F)(F)F + CCCCCCCC[n+]1ccn(C)c1.F[P-](F)(F)(F)(F)F
100 kPa, x2 = 0.5
Details | viscosity [mPa·s]
333.15 K | 90.3
343.15 K | 60.9
353.15 K | 44.5

O=C1c2ccccc2C(=O)C1(O)O + CCCC[N+](CCCC)(CCCC)CCCC.O=S(=O)([O-])O
100 kPa, x2 = 0.571
Details | electrical conductivity [S/m] | viscosity [mPa·s]
293.15 K | 2.5e-06 | –
298.15 K | 7.8e-06 | –
303.15 K | 2.49e-05 | –
308.15 K | 6.58e-05 | –
313.15 K | 0.000153 | –
318.15 K | 0.000325 | –
323.15 K | 0.000614 | –
328.15 K | 0.00109 | 27000
333.15 K | 0.00183 | –
343.15 K | – | 6500

c1nnn[nH]1 + CCCC[P+](CCCC)(CCCC)CCCC.[Cl-] + [N]=O
303.15 K, 101.3 kPa
Details | viscosity [mPa·s]
x1 = 0.2439, x2 = 0.2439 | 3.1
x1 = 0.2518, x2 = 0.2518 | 4
x1 = 0.2597, x2 = 0.2597 | 4
x1 = 0.2723, x2 = 0.2723 | 6
x1 = 0.2867, x2 = 0.2867 | 9.2

CCCCC(=O)[O-].CC[NH+](CC)CCO + CCCC[n+]1ccn(C)c1.COP(=O)([O-])OC
101 kPa
Details | viscosity [mPa·s]
278.15 K, x1 = 0.6984 | 216.8
283.15 K, x1 = 0.4973 | 226.8
288.15 K, x1 = 0.1018 | 874
293.15 K, x1 = 0.1018 | 594
298.15 K, x1 = 0.1952 | 271.2
298.15 K, x1 = 0.5989 | 76
298.15 K, x1 = 0.7978 | 58.54
303.15 K, x1 = 0.1952 | 199.9
303.15 K, x1 = 0.3029 | 132
303.15 K, x1 = 1 | 37.12
308.15 K, x1 = 0.1952 | 150.4
308.15 K, x1 = 0.5989 | 46.85
313.15 K, x1 = 0.3029 | 79.5
313.15 K, x1 = 0.4003 | 58.57
313.15 K, x1 = 0.5989 | 37.62
313.15 K, x1 = 0.8868 | 26.19
318.15 K, x1 = 0.1952 | 90.1
318.15 K, x1 = 0.4003 | 47.13
318.15 K, x1 = 0.5989 | 30.62
318.15 K, x1 = 0.6984 | 26.67
323.15 K, x1 = 0.7978 | 19.5
328.15 K, x1 = 0.4973 | 25.35
328.15 K, x1 = 0.5989 | 21.04
328.15 K, x1 = 0.6984 | 18.34
333.15 K, x1 = 0.1018 | 62.36
333.15 K, x1 = 0.3029 | 34.47
333.15 K, x1 = 0.4003 | 26.54
333.15 K, x1 = 0.8868 | 12.34
333.15 K, x1 = 1 | 10.94
338.15 K, x1 = 0.1952 | 38.69
338.15 K, x1 = 0.4973 | 18.07
338.15 K, x1 = 0.5989 | 15.08
343.15 K, x1 = 0.4003 | 19.11
343.15 K, x1 = 0.4973 | 15.48
343.15 K, x1 = 0.6984 | 11.27
348.15 K, x1 = 0.5989 | 11.19
353.15 K, x1 = 0.5989 | 9.76
358.15 K, x1 = 0.8868 | 5.91
358.15 K, x1 = 1 | 5.15
363.15 K, x1 = 0.1018 | 21.41
363.15 K, x1 = 0.6984 | 6.56
373.15 K, x1 = 0.4003 | 8.6
373.15 K, x1 = 1 | 3.53
